Test results taken from US20110251238A1, “PPAR AGONIST COMPOSITIONS AND METHODS OF USE” (BIOPHARMED, priority 2008, published 2011).
≈ marks a conversion by molar mass, not a printed value. One block for each molecule: values may come before it.

Experiments:
B16-F10 (mouse melanoma) = test: Growth inhibition, MTT colorimetric assay, B16F10; assay type: cell-based; details: Mus musculus, B16-F10, 72 h; melanoma; 3 days with drug; means of six values; unit inferred; read-out: IC50 B16F10
Protocol: (§1) Compounds that met the criteria for activity on KB3 cells were further tested for drug growth inhibitory activity in 5 carcinoma, 6 glioma and 3 melanoma cell lines, shown in Table 4. A549 (human lung adenocarcinoma epithelial), BxPC3 (pancreatic cancer), LoVo (colon cancer), MCF-7 (epithelial breast cancer), PC3 (human prostate cancer), Hs683 (human glioma), T98G (glioblastoma), U373 (human glioblastoma-astrocytoma), U138 MG (human glioma), epithelial-like), SKMEL28 (human melanoma), B16-F10 (mouse melanoma) and RhTP (rhabdomyosarcoma) cell lines were cultured in presence of the drugs for 3 days. The cytotoxic activity is expressed as (IC50). Inhibition of cell proliferation measured by the MTT colorimetric assay. The values reported in Table 4 are means of six distinct values. The standard errors are <5% as compared to the mean values.

caspases 8 = test: Caspases 8 activation in HL60 cells (IEDT reagent); assay type: cell-based, human; details: 48 hours, 1 μM, 0.1 μM and 0.01 μM
From the text: (§2) 7223, using standard commercially available diagnostic kits (Calbiochem, USA). Assay reagents used were DEVD for caspases 3/7, […] for caspases 8, and LEHD for caspases 9. Moreover, colchicine was used as reference compound that induces this activity of caspases.

[1] = test system: KB3 (epitheloid lung cancer) cell lines; test: Cell growth inhibition (cytotoxicity), MTS assay, KB3 cell line; assay type: cell-based; details: KB3; Table 3A; MTS assay, triplicate; read-out: KB3 IC50
Protocol: Cell growth inhibition was determined by the MTS assay; the number of viable cells were proportional to the extent of formazan production in the presence or absence of drugs. […]

RhTP (rhabdomyosarcoma) = test: Growth inhibition, MTT colorimetric assay, RhTp; assay type: cell-based; details: 72 h; 3 days with drug; means of six values; unit inferred; read-out: IC50 RhTp
Protocol: as §1

Host = test: Growth inhibition, MTT colorimetric assay, Host; assay type: cell-based; details: 72 h; 3 days with drug; means of six values; unit inferred; read-out: IC50 Host
Protocol: as §1

caspases 3/7 = test: Caspases 3/7 activation in HL60 cells (DEVD reagent); assay type: cell-based, human; details: 48 hours
From the text: as §2

[2] = test system: bloodstream forms of T. brucei and T. congolense; test: Trypanocidal activity in vitro, Alamar Blue assay; assay type: cell-based, Trypanosoma brucei and T. congolense; details: 48 h total incubation
In short: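 Bloodstream-form trypanosomes exposed to compounds in H2O for 24 h, then Alamar Blue added for a further 24 h (48 h total). Absorbance read at 550 nm with 630 nm reference; duplicate wells, three repeats. HL-60 cytotoxicity run alongside: 43 h plus 5 h dye.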

caspases 9 = test: Caspases 9 activation in HL60 cells (LEHD reagent); assay type: cell-based, human; details: 48 hours, 1 μM, 0.1 μM and 0.01 μM
From the text: as §2

GL19 = test: Growth inhibition, MTT colorimetric assay, GL19; assay type: cell-based; details: GL19, 72 h; 3 days with drug; means of six values; unit inferred; read-out: IC50 GL19
Protocol: as §1

SKMEL28 (human melanoma) = test: Growth inhibition, MTT colorimetric assay, SKMEL-28; assay type: cell-based; details: Homo sapiens, SK-MEL-28, 72 h; melanoma; 3 days with drug; means of six values; unit inferred; read-out: IC50 SKMEL-28
Protocol: as §1

[3] = test system: U373 (human glioblastoma-astrocytoma); test: Growth inhibition, MTT colorimetric assay, U373; assay type: cell-based; details: Homo sapiens, U373 MG, 72 h; glioma; 3 days with drug; means of six values; unit inferred; read-out: IC50 U373
Protocol: as §1

KaKa = test: Growth inhibition, MTT colorimetric assay, KaKa; assay type: cell-based; details: 72 h; 3 days with drug; means of six values; unit inferred; read-out: IC50 KaKa
Protocol: as §1

[4] = test system: HT-22, an immortalized mouse hippocampal cell line; test: Neuroprotection of HT-22 cells against toxic insults (calcein viability assay); assay type: cell-based
Protocol: It is known (P. Aoun, 2003 Eur. J. Pharm. 472:65-71) that Peroxisome proliferator-activated receptors (PPARs) are involved in regulating many metabolic and inflammatory processes. The present invention explores the role of PPAR ligands in protecting neuronal cultures from toxic insults. For that purpose, the new PPAR agonists described in Example 1 were screened for their potential role as neuroprotective compounds. Experiments were performed using HT-22, an immortalized mouse hippocampal cell line, and SK-N-SH, a human neuroblastoma cell line. HT-22 was selected because it expresses PPARγ receptors. Cell viability against glutamate, hydrogen peroxide (H2O2), and serum deprivation insults was determined using a calcein assay. […] Additionally, compounds were protective even when administered simultaneously with glutamate, or for up to 8 h postglutamate insult.
HT-22, an immortalized mouse hippocampal cell line, and SK-N-SH, a human neuroblastoma cell line, were used. HT-22 cells were obtained from David Schubert (Salk Institute, San Diego, Calif.). The HT-22 line was originally selected from HT-4 cells based on glutamate sensitivity. SK-N-SH cells were obtained from ATCC (Manassas, Va.). HT-22 and SK-N-SH cells were grown to confluency in Dulbecco's modified essential medium (DMEM) and RPMI-1640 media, respectively, and supplemented with 10% charcoal/dextran-treated fetal bovine serum (FBS) and […] gentamicin at 37° C. under 95% air/5% CO2. HT-22 cells were plated at a density of 50,000 cells/ml (5000 cells/well), and SK-N-SH cells were plated at a density of 120,000-150,000 cells/ml (12,000-15,000 cells/well) in 96-well plates. In most studies, wells were pretreated with PPAR ligands over a wide dose range at various times prior to being subjected to either glutamate, hydrogen peroxide, or serum deprivation insults. In some studies, the insults were applied prior to the addition of the PPAR ligand.
The following analogues were tested on the HT22 cell line for their neuroprotective effect against glutamate insult and for their anti-inflammatory activity on relevant, models including HT22 cell line.

U138 MG (human glioma) = test: Growth inhibition, MTT colorimetric assay, U138; assay type: cell-based; details: Homo sapiens, U138-MG, 72 h; glioma; 3 days with drug; means of six values; unit inferred; read-out: IC50 U138
Protocol: as §1

[5] = test system: bloodstream forms of T. brucei 427-221a; details: identical experimental conditions, Merschjohann et al. (2001); cited from earlier work
[6] = test system: bloodstream forms of T. congolense STIB910; details: T. congolense STIB910, identical experimental conditions, Merschjohann et al. (2001); cited from earlier work

IC50 (B16-F10 (mouse melanoma)): 88 nM
IC50 (RhTP (rhabdomyosarcoma)): 84 nM
IC50 (SKMEL28 (human melanoma)): 4780 nM
IC50 [3]: 96 nM
IC50 (U138 MG (human glioma)): 81 nM
Compound: Cc1ccc(CN(Cc2ccc(O)c3ncccc23)Cc2ccc(O)c3ncccc23)cc1 [BPM19,107, 5,5′-(4-(methyl)benzylazanediyl)bis(methylene)diquinolin-8-ol]
activation of caspases 8 (caspases 8): no effect
IC50 [1]: 3 nM
IC50 (Host): 2460 nM
activation of caspases 3/7 (caspases 3/7; 0.01 μM): neither BPM18,708 nor BPM19,107 has an effect
activation of caspases 3/7 (caspases 3/7; 0.1 μM): strong effect
activation of caspases 3/7 (caspases 3/7; 1 μM): strong effect
GI50 ([2]; 50% growth inhibition, read-out: GI50): 310 ± 10 nM
MIC ([2]; lowest concentration at which all cells were killed, read-out: MIC): 1 µM (≈ 0.436 µg/mL)
activation of caspases 9 (caspases 9): no effect
IC50 (GL19): 1030 nM
IC50 (KaKa): 710 nM
neuroprotection from H2O2 insult [4]: dose-dependent neuroprotection
neuroprotection from glutamate insult [4]: dose-dependent neuroprotection

Compound: Cc1ccc(C(=O)Nc2ccc(S(=O)(=O)O)c3cc(S(=O)(=O)O)cc(S(=O)(=O)O)c23)cc1NC(=O)c1cccc(NC(=O)Nc2cccc(C(=O)Nc3cc(C(=O)Nc4ccc(S(=O)(=O)O)c5cc(S(=O)(=O)O)cc(S(=O)(=O)O)c45)ccc3C)c2)c1 [suramin]
IC50 [5]: 400 nM

Compound: N=C(N)c1ccc(N=NNc2ccc(C(=N)N)cc2)cc1 [diminazene aceturate]
IC50 [6]: 500 nM
